Assay type in all cases: cell-based
Settings in all cases: LB broth, 5×10^5 CFU/ml, 37° C., 18 hours, scored by eye

For assay [1], the system named is E. coli 25922. As to the kind of experiment: Minimum Inhibitory Concentration (MIC) determination, E. coli 25922. Also noted: unit not given here. The gist of the method:
(§1)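 Peptides, diluted two-fold in LB broth from 10 mM DMSO stocks, were inoculated with 5×10^5 CFU/ml of each strain. Incubation was 18 h at 37 °C without shaking. MIC is the lowest concentration preventing visible growth, scored by eye.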

In assay [2] the test system is E. cloacae ATCC222. As to the kind of experiment: Minimum Inhibitory Concentration (MIC) determination, E. cloacae ATCC222. Also noted: unit not given here. A digest of the protocol: as §1
Assay [3] has as its system K. pneumoniae ATCC43816. As to the kind of experiment: Minimum Inhibitory Concentration (MIC) determination, K. pneumoniae ATCC43816. Also noted: unit not given here. The gist of the method: as §1
The test system of assay [4] is E. coli BW25113. As to the kind of experiment: Minimum Inhibitory Concentration (MIC) determination, E. coli BW25113. The arrangement: unit not given here. A digest of the protocol:
as §1

The test system of assay [5] is E. coli 25922 IMP. As to the kind of experiment: Minimum Inhibitory Concentration (MIC) determination, E. coli 25922 IMP. The gist of the method: as §1

Bridge positions count the residues as written; N and C are the ends. Square brackets hold non-standard residues; d marks the D form. Peptide text beside a SMILES is read from it. 1Nal = N[C@@H](Cc1cccc2ccccc12)C(=O)O; His(π-Me) = Cn1cncc1C[C@H](N)C(=O)O; NMeY = CN[C@@H](Cc1ccc(O)cc1)C(=O)O; Gly(N(CH2)3NH2) = NCCCNCC(=O)O; aThr = C[C@H](O)[C@H](N)C(=O)O; Abu = CC[C@H](N)C(=O)O

For the molecule `CC[C@@H]1NC(=O)[C@H](Cc2ccccc2)NC(=O)CSC[C@@H](C(=O)NCC(N)=O)NC(=O)[C@H](Cc2cncn2C)NC(=O)[C@H](CCCNC(=N)N)NC(=O)[C@H](Cc2c[nH]cn2)NC(=O)[C@H](Cc2ccc(O)cc2)N(C)C(=O)[C@H](CCCNC(=N)N)NC(=O)[C@H]([C@H](C)O)NC(=O)CNC(=O)[C@H](Cc2c[nH]cn2)NC(=O)[C@H](Cc2cccc3ccccc23)NC1=O` [Compound 31] ({CH2CO}-F[Abu][1Nal]HG[aThr]R[NMeY]HR[His(π-Me)]CG-NH2; thioether N-12), the “MIC E. coli 25922 WUXI::MIC” value in assay [1] worked out at 25. In addition, the “MIC E. cloacae ATCC222 WUXI::MIC” value in assay [2] stood at 6.3. Also, in assay [3], the “MIC K. pneumoniae ATCC43816 Wuxi::MIC” value was 50. The “MIC E. coli BW25113 WUXI::MIC” value in assay [4] stood at 50. Moreover, the “MIC E. coli 25922 IMP WUXI::MIC” value in assay [5] is 0.016.

As to `CC[C@@H]1NC(=O)[C@H](Cc2ccccc2)NC(=O)CSC[C@@H](C(=O)NCC(N)=O)NC(=O)[C@H](Cc2cncn2C)NC(=O)[C@H](CCCNC(=N)N)NC(=O)[C@H](Cc2cnc[nH]2)NC(=O)[C@H](Cc2ccc(O)cc2)N(C)C(=O)[C@H](CCCNC(=N)N)NC(=O)[C@H](CO)NC(=O)CNC(=O)[C@H](C)NC(=O)[C@H](Cc2cccc3ccccc23)NC1=O` (stereo in doubt) [Compound 35], the “MIC E. coli 25922 WUXI::MIC” value in assay [1] is given as 100. Moreover, the “MIC E. cloacae ATCC222 WUXI::MIC” value in assay [2] amounted to 100. The “MIC K. pneumoniae ATCC43816 Wuxi::MIC” value in assay [3] is reported as 100. Further, the “MIC E. coli BW25113 WUXI::MIC” value in assay [4] is reported as 100. Moreover, the “MIC E. coli 25922 IMP WUXI::MIC” value in assay [5] is listed as 3.1.

For `CC[C@@H](C)[C@H]1NC(=O)[C@@H](Cc2ccccc2)NC(=O)CSC[C@H](C(=O)NCC(N)=O)NC(=O)[C@@H](Cc2cncn2C)NC(=O)[C@@H](CCCNC(=N)N)NC(=O)[C@@H](Cc2cnc[nH]2)NC(=O)[C@@H](Cc2ccccc2)N(C)C(=O)[C@@H](CCCNC(=N)N)NC(=O)[C@@H](CO)NC(=O)CNC(=O)[C@@H](Cc2cnc[nH]2)NC(=O)[C@@H](Cc2cccc3ccccc23)NC1=O` (racemic) [Compound 17], the “MIC E. coli 25922 WUXI::MIC” value in assay [1] is listed as 13. In addition, the “MIC E. cloacae ATCC222 WUXI::MIC” value in assay [2] amounted to 3.1. Further, in assay [3], the “MIC K. pneumoniae ATCC43816 Wuxi::MIC” value stood at 37.5. Besides, in assay [4], the “MIC E. coli BW25113 WUXI::MIC” value stood at 50. Also, in assay [5], the “MIC E. coli 25922 IMP WUXI::MIC” value is on record as 0.002.

`CC[C@@H]1NC(=O)[C@H](Cc2ccccc2)NC(=O)CSC[C@@H](C(=O)NCC(N)=O)NC(=O)[C@H](Cc2cncn2C)NC(=O)[C@H](CCCNC(=N)N)NC(=O)[C@H](Cc2c[nH]cn2)NC(=O)[C@H](Cc2ccc(O)cc2)N(C)C(=O)[C@H](CCCNC(=N)N)NC(=O)[C@H](CO)NC(=O)CN(CCCN)C(=O)[C@H](Cc2c[nH]cn2)NC(=O)[C@H](Cc2cccc3ccccc23)NC1=O` [Compound 29] ({CH2CO}-F[Abu][1Nal]H[Gly(N(CH2)3NH2)]SR[NMeY]HR[His(π-Me)]CG-NH2; thioether N-12): in assay [1], the “MIC E. coli 25922 WUXI::MIC” value is given as 1.6. For the same molecule, in assay [2], the “MIC E. cloacae ATCC222 WUXI::MIC” value was found to be 0.1. Besides, the “MIC K. pneumoniae ATCC43816 Wuxi::MIC” value in assay [3] is on record as 3.1. Besides, the “MIC E. coli BW25113 WUXI::MIC” value in assay [4] is reported as 6.3. For the same molecule, the “MIC E. coli 25922 IMP WUXI::MIC” value in assay [5] turned out to be 0.001.

(Values after patent publication US20240279283A1, “CYCLIC PEPTIDE ANTIBIOTICS” (priority 2021, published 2024).)
